These results are taken from ChEMBL document CHEMBL4680201, “Design, synthesis, and pharmacological evaluation of 4- or 6-phenyl-pyrimidine derivatives as novel and selective Janus kinase 3 inhibitors” (Eur J Med Chem, 2020).

Series [1] addresses T1, Tyrosine-protein kinase JAK3 (Mus musculus) (UniProt Q62137).
T1 sequence (whole entry): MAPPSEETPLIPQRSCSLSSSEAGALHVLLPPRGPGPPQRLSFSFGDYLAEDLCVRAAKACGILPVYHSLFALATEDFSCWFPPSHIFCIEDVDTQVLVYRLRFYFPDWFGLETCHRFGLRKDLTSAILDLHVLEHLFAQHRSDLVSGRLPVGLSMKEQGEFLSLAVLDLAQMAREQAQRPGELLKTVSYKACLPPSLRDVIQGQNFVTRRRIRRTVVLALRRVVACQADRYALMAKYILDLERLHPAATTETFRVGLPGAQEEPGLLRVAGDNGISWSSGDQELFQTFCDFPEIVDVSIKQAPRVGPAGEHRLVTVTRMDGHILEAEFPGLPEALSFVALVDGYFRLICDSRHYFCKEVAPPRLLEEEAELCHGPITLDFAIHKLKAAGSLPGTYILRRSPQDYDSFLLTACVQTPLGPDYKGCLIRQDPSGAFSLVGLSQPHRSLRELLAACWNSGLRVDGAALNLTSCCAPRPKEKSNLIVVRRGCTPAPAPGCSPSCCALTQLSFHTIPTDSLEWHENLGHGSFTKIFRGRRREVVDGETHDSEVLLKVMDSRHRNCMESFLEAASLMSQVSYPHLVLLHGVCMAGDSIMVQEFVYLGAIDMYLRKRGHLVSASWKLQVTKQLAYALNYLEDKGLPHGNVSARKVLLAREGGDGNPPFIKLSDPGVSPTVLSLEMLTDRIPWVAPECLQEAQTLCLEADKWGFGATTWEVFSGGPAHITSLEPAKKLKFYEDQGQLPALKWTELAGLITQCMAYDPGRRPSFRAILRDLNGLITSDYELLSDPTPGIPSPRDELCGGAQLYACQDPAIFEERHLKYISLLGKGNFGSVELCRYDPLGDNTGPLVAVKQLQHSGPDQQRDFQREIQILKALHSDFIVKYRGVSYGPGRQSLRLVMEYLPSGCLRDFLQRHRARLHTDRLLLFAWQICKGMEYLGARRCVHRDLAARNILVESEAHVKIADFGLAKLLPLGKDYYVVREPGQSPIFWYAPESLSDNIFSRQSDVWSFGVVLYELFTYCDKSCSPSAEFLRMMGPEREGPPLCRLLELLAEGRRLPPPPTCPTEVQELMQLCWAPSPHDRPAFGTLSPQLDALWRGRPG
The series can be described thus: Inhibition of JAK3 in anti-CD3/-CD28 coated mouse T cells assessed as reduction in IL15-induced STAT5 phosphorylation preincubated for 1 hr followed by […] and measured after 30 mins by Western blot analysis. The settings on record: T cell. Background: Immunoblotting shows a protein as a band on a membrane.

In series [2] the target is BLK (Tyrosine-protein kinase Blk) (Homo sapiens, UniProt P51451). Nature of the series: Inhibition of recombinant human His-tagged full length BLK expressed in baculovirus expression system at 100 nM using Tyr01 peptide as substrate incubated for 1 hr in presence of ATP by Z'-LYTE assay relative to control. The settings on record: probe Tyr01 peptide.
BLK (Tyrosine-protein kinase Blk), sequence (P51451 whole entry): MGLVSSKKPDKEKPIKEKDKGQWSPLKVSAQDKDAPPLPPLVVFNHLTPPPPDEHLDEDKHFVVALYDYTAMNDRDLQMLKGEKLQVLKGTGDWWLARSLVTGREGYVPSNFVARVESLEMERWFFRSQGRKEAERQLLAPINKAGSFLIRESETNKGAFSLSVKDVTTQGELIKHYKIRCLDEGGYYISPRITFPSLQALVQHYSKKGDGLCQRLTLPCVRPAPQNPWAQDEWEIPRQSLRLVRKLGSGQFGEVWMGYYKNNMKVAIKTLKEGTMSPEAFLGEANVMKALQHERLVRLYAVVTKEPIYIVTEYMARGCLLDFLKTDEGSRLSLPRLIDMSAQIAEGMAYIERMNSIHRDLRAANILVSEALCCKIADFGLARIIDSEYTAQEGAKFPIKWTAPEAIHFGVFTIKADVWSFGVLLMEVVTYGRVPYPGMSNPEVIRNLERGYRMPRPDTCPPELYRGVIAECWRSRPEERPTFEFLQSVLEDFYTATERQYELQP
Series [3] has as its target T2, BMX (Cytoplasmic tyrosine-protein kinase BMX) (Homo sapiens, UniProt P51813).
T2 sequence (P51813 whole entry): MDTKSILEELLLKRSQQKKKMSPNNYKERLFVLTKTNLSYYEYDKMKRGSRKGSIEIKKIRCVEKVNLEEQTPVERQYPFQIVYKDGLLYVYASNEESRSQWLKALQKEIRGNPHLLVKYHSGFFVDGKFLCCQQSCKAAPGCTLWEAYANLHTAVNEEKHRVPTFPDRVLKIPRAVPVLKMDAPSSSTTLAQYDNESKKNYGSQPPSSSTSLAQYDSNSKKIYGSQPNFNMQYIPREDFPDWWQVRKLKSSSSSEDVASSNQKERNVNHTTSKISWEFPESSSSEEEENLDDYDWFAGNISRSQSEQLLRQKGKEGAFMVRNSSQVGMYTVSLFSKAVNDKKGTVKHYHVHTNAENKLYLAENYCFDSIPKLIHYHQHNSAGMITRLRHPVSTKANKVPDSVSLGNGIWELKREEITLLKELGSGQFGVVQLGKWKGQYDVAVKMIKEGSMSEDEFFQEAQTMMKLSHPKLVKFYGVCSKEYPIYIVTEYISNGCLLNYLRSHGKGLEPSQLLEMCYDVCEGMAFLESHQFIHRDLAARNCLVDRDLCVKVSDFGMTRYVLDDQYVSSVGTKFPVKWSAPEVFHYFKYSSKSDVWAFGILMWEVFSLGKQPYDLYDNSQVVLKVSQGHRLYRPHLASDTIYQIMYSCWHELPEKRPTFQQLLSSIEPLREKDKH
The series can be described thus: Inhibition of recombinant human His-tagged full length BMX expressed in baculovirus expression system at 100 nM using Tyr 01 as substrate incubated for 60 mins by Z'-Lyte assay relative to control. The conditions noted are these: probe Tyr 01.

Series [4] has as its target TEK (Angiopoietin-1 receptor) (Homo sapiens, UniProt Q02763). The series can be described thus: Inhibition of recombinant human GST-tagged TEK (817 to 1101 residues) expressed in baculovirus expression system at 100 nM using Tyr 05 as substrate incubated for 1 hr in presence of ATP by Z'-LYTE assay relative to control. The conditions noted are these: probe Tyr 05.
Series [5] has as its target RET (Proto-oncogene tyrosine-protein kinase receptor Ret) (Homo sapiens, UniProt P07949). The series can be described thus: Inhibition of recombinant human GST-tagged RET (658 to 1114 residues) expressed in baculovirus expression system at 100 nM using Tyr 02 as substrate incubated for 1 hr in presence of ATP by Z'-LYTE assay relative to control. The settings on record: probe Tyr 02.

The nature of series [6]: AUC (0 to t) in ICR mouse at 10 mg/kg, iv administered as single dose by LC-MS/MS analysis. The class given is ADME, organism-based. More on the design: dose 10 mg/kg. The conditions noted are these: in vivo.
The nature of series [7]: Cmax in ICR mouse at 10 mg/kg, iv administered as single dose by LC-MS/MS analysis. The format is ADME, organism-based. More on the design: route intravenous, dose 10 mg/kg. The settings on record: in vivo.
The nature of series [8]: Terminal half life in ICR mouse at 30 mg/kg, po administered as single dose via gavage by LC-MS/MS analysis. The class given is ADME, organism-based. The conditions noted are these: in vivo, read-out: beta t1/2 (converted).

Molecules are shown by their SMILES.

RET (Proto-oncogene tyrosine-protein kinase receptor Ret), sequence (P07949 whole entry, the tested form may be a part): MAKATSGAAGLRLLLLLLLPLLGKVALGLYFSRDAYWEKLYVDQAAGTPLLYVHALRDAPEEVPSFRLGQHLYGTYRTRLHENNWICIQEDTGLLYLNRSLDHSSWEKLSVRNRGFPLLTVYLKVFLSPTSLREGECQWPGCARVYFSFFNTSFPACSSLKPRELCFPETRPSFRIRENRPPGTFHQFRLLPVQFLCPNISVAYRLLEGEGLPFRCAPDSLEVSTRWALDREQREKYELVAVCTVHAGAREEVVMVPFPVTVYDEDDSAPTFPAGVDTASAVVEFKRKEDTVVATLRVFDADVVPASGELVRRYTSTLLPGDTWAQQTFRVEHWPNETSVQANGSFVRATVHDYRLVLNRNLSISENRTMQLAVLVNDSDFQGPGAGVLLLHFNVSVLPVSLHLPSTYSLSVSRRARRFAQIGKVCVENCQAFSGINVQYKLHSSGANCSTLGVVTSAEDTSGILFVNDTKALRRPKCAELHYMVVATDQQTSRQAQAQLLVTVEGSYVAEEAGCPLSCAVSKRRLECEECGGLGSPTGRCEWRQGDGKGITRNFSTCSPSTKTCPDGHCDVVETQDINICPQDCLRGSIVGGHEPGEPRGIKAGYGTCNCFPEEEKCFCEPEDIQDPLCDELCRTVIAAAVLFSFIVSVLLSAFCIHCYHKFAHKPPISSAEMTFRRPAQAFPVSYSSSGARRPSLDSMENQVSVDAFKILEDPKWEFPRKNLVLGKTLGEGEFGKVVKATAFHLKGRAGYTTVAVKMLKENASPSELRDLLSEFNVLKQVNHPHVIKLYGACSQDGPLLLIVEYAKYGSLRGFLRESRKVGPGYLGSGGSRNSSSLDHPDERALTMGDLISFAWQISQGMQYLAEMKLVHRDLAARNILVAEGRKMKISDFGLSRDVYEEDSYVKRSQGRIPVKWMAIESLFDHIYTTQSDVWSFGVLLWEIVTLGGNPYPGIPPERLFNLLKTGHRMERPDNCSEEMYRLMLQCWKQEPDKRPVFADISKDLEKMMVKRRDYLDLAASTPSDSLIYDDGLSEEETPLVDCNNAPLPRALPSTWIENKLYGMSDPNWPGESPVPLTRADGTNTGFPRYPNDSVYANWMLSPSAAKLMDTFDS
TEK (Angiopoietin-1 receptor), sequence (Q02763 whole entry, the tested form may be a part): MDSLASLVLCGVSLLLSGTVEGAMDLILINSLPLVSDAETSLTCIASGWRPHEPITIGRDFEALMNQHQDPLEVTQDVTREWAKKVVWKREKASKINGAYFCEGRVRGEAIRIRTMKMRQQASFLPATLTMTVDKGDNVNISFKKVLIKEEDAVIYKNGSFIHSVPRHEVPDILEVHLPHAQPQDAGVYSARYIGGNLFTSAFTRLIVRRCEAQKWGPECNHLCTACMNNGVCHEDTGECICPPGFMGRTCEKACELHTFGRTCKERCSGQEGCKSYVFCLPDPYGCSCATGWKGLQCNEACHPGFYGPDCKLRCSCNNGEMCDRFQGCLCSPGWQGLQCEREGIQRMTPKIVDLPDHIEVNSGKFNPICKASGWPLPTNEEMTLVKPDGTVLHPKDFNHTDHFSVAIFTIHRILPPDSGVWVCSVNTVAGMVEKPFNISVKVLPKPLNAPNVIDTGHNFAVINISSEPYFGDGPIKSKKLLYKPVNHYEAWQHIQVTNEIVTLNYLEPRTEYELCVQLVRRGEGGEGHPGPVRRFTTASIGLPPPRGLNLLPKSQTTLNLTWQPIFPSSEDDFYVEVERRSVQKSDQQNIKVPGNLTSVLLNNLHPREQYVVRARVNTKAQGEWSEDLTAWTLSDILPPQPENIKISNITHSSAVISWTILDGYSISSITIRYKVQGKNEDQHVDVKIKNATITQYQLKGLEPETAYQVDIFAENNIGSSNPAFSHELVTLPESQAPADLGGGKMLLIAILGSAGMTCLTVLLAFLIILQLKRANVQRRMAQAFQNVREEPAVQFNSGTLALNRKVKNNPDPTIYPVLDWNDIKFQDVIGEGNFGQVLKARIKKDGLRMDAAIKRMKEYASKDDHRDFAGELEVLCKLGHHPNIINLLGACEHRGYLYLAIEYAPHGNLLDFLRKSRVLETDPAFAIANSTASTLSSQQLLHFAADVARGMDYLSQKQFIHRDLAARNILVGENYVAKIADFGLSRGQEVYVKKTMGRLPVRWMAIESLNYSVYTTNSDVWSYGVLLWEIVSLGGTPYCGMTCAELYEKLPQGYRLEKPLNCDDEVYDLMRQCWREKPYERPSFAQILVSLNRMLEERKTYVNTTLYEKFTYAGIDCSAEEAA

One may read the inhibition as the share of the control response that was lost under treatment. Broadly, the AUC(0-t) is exposure summed from dosing to a finite time, without extrapolation to infinity. Read a high AUC(0-t) as high exposure. One may read the Cmax as the peak of the concentration-time curve. Regarding `C=CC(=O)Nc1ccc(-c2ccnc(Nc3ccc(N4CCOCC4)cc3)n2)cc1`, the inhibition result in series [1] is “Dose-dependent effect”. The inhibition at 1 h, 0.1 µM in series [2] was determined as 20.6%; in series [3], 3.7%; in series [4], 29.5%; in series [5], 2.9%. This molecule showed an AUC(0-t) in series [6] of 1240 ng·h/mL. The molecule also came in with a Cmax in series [7] of 8760 ng/mL. Besides, the half-life in series [8] is 1.52 h.
